Source: the supplement of paper PMC11061612

Experiments:
Experiment in all cases: Bliss excess, mean over the matrix (fraction); higher = more synergy
[1] = system: MHH-ES-1 (Ewing's Sarcoma)
Summary of the method: (§1)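 After 24 hours at 37°C and 5% CO2 in 1536-well plates, cells in DMEM/F12 or RPMI plus 10% FBS received two-drug dose matrices for 72 hours. Viability came from CellTiter-Glo 2.0 luminescence and was scaled as inhibition, anchored at 0 by vehicle wells and at 1 by blank wells. Combination Emax is taken as the second-highest inhibition in the matrix, and Bliss excess as the observed combination effect less EA + EB − EA·EB, with EA and EB the single-agent effects.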

[2] = system: JVM-2 (B-Cell Non-Hodgkin's Lymphoma)
Summary of the method: as §1

[3] = system: GA-10 (Burkitt's Lymphoma)
Summary of the method: as §1

[4] = system: G-402 (Other Solid Carcinomas)
Summary of the method: as §1

[5] = system: ESO26 (Esophageal Adenocarcinoma)
Summary of the method: as §1

[6] = system: JHH-2 (Hepatocellular Carcinoma)
Summary of the method: as §1

EW-7 (Ewing's Sarcoma) = system: EW-7 (Ewing's Sarcoma)
Summary of the method: as §1

IM-9 (Non-Cancerous) = system: IM-9 (Non-Cancerous)
Summary of the method: as §1

[7] = system: HCC1395 (Breast Carcinoma)
Summary of the method: as §1

[8] = system: KYSE-140 (Esophageal Squamous Cell Carcinoma)
Summary of the method: as §1

[9] = system: SW620 (Colorectal Carcinoma)
Summary of the method: as §1

5637 (Bladder Carcinoma) = system: 5637 (Bladder Carcinoma)
Summary of the method: as §1

NB13 (Neuroblastoma) = system: NB13 (Neuroblastoma)
Summary of the method: as §1

EB2 (Burkitt's Lymphoma) = system: EB2 (Burkitt's Lymphoma)
Summary of the method: as §1

[10] = system: DU-4475 (Breast Carcinoma)
Summary of the method: as §1

[11] = system: LU-165 (Small Cell Lung Carcinoma)
Summary of the method: as §1

[12] = system: CESS (Acute Myeloid Leukemia)
Summary of the method: as §1

WM1552C (Melanoma) = system: WM1552C (Melanoma)
Summary of the method: as §1

[13] = system: SK-HEP-1 (Hepatocellular Carcinoma)
Summary of the method: as §1

A101D (Melanoma) = system: A101D (Melanoma)
Summary of the method: as §1

Compound | Bliss excess [1] | Bliss excess [2] | Bliss excess [3] | Bliss excess [4] | Bliss excess [5] | Bliss excess [6] | Bliss excess (EW-7 (Ewing's Sarcoma)) | Bliss excess (IM-9 (Non-Cancerous)) | Bliss excess [7] | Bliss excess [8] | Bliss excess [9] | Bliss excess (5637 (Bladder Carcinoma)) | Bliss excess (NB13 (Neuroblastoma)) | Bliss excess (EB2 (Burkitt's Lymphoma)) | Bliss excess [10] | Bliss excess [11] | Bliss excess [12] | Bliss excess (WM1552C (Melanoma)) | Bliss excess [13] | Bliss excess (A101D (Melanoma))
CC1(C)CCC(CN2CCN(c3ccc(C(=O)NS(=O)(=O)c4ccc(NCC5CCOCC5)c([N+](=O)[O-])c4)c(Oc4cnc5[nH]ccc5c4)c3)CC2)=C(c2ccc(Cl)cc2)C1 [Venetoclax] + CCN(CCO)CCCOc1ccc2c(Nc3cc(CC(=O)Nc4cccc(F)c4)[nH]n3)ncnc2c1 [AZD2811] (first compound max 1 µM, 7x7, partner max 1 µM) | 0.0824 | 0.051 | 0.0033 | -0.0036 | -0.0262 | -0.038 | -0.0227 | 0.0275 | -0.01 | -0.0045 | -0.0243 | -0.0229 | 0.0534 | -0.0357 | 0.0087 | -0.0665 | 0.0083 | -0.0804 | -0.0621 | -0.0182
CCN(CCO)CCCOc1ccc2c(Nc3cc(CC(=O)Nc4cccc(F)c4)[nH]n3)ncnc2c1 [AZD2811] + C[C@@H]1COCCN1C2=NC(=NC(=C2)C3(CC3)[S@](=N)(=O)C)C4=C5C=CNC5=NC=C4 [AZD6738] (first compound max 1 µM, 7x7, partner max 10 µM) | -0.0145 | -0.0809 | -0.057 | -0.0703 | -0.0427 | -0.0196 | -0.0469 | -0.0441 | -0.0579 | 0.0008 | -0.0451 | -0.0712 | -0.0727 | 0.0038 | 0.0045 | -0.0637 | -0.0259 | -0.0468 | -0.0397 | -0.0414
NC1(C(=O)N[C@@H](CCO)c2ccc(Cl)cc2)CCN(c2ncnc3[nH]ccc23)CC1 [Capivasertib] + COc1nnc2ccc(N3CCC(c4ccc(OCCN5CCN(C)C(=O)[C@H]5C)cc4)CC3)nn12 [AZD5153] (first compound max 10 µM, 7x7, partner max 1 µM) | 0.0467 | -0.0764 | -0.0148 | -0.02 | 0.0358 | 0.0064 | -0.0004 | -0.0708 | -0.0381 | 0.0298 | 0.0026 | 0.0035 | 0.0532 | -0.0966 | 0.02 | -0.0351 | 0.0506 | -0.0366 | -0.0784 | 0.0062
Cn1cnc2c(F)c(Nc3ccc(Br)cc3Cl)c(C(=O)NOCCO)cc21 [Selumetinib] + CCN(CCO)CCCOc1ccc2c(Nc3cc(CC(=O)Nc4cccc(F)c4)[nH]n3)ncnc2c1 [AZD2811] (first compound max 10 µM, 7x7, partner max 1 µM) | -0.0268 | 0.0315 | -0.0559 | -0.0137 | -0.0374 | -0.0193 | -0.0023 | -0.032 | -0.008 | -0.0554 | 0.0738 | 0.0276 | -0.0829 | -0.0564 | 0.0351 | -0.0377 | 0.0943 | -0.0694 | -0.0421 | -0.0718
C=CCn1c(=O)c2cnc(Nc3ccc(N4CCN(C)CC4)cc3)nc2n1-c1cccc(C(C)(C)O)n1 [AZD1775] + C[C@@H]1COCCN1C2=NC(=NC(=C2)C3(CC3)[S@](=N)(=O)C)C4=C5C=CNC5=NC=C4 [AZD6738] (first compound max 1 µM, partner max 10 µM) | -0.0135 | 0.0203 | 0.0096 | -0.0458 | 0.0102 | -0.0817 | -0.0435 | 0.0274 | 0.0091 | 0.0259 | 0.0144 | 0.007 | 0.0101 | 0.0589 | 0.0549 | -0.0127 | 0.0388 | 0.0011 | -0.0271 | -0.0089
CC1(C)CCC(CN2CCN(c3ccc(C(=O)NS(=O)(=O)c4ccc(NCC5CCOCC5)c([N+](=O)[O-])c4)c(Oc4cnc5[nH]ccc5c4)c3)CC2)=C(c2ccc(Cl)cc2)C1 [Venetoclax] + COc1cc(Nc2ncc3c(n2)-c2ccc(Cl)cc2C(c2c(F)cccc2OC)=NC3)ccc1C(=O)O [Alisertib] (first compound max 1 µM, 7x7, partner max 10 µM) | 0.0931 | 0.0333 | 0.0181 | -0.0116 | -0.003 | -0.0018 | 0.0262 | 0.043 | -0.0147 | 0.0471 | -0.0335 | -0.0313 | 0.0028 | 0.13 | 0.0933 | 0.027 | 0.0268 | -0.0613 | -0.0578 | 0.077
CC1(C)CCC(CN2CCN(c3ccc(C(=O)NS(=O)(=O)c4ccc(NCC5CCOCC5)c([N+](=O)[O-])c4)c(Oc4cnc5[nH]ccc5c4)c3)CC2)=C(c2ccc(Cl)cc2)C1 [Venetoclax] + CN(C)CCCOc1ccc(-c2ccc3ncc4c(c3c2)n(C2CCOCC2)c(=O)n4C)cn1 [AZD0156] (first compound max 1 µM, 7x7, partner max 1 µM) | 0.0177 | 0.0143 | -0.0585 | -0.0774 | -0.0063 | -0.028 | -0.007 | 0.0254 | -0.0304 | 0.0177 | -0.0142 | -0.0273 | 0.021 | 0.0106 | -0.0158 | -0.0309 | -0.0638 | -0.0674 | -0.057 | 0.0088
CC(=O)c1c(C)c2cnc(Nc3ccc(N4CCNCC4)cn3)nc2n(C2CCCC2)c1=O [Palbociclib] + Cc1c2c(nn1C)CSCc1cc(n(C)n1)CSc1cc(c3ccccc3c1)OCCCc1c(C(=O)O)n(C)c3c-2c(Cl)ccc13 [AZD5991] (first compound max 10 µM, 7x7, partner max 1 µM) | -0.008 | -0.0206 | -0.0211 | 0.0106 | -0.0467 | -0.0475 | -0.0005 | 0.0229 | -0.0403 | -0.0814 | -0.0292 | -0.0342 | 0.0041 | -0.0352 | 0.0238 | -0.0347 | -0.0341 | -0.0565 | 0.0434 | -0.0091
CCN(CCO)CCCOc1ccc2c(Nc3cc(CC(=O)Nc4cccc(F)c4)[nH]n3)ncnc2c1 [AZD2811] + C=CCn1c(=O)c2cnc(Nc3ccc(N4CCN(C)CC4)cc3)nc2n1-c1cccc(C(C)(C)O)n1 [AZD1775] (first compound max 1 µM, partner max 1 µM) | 0.0089 | 0.0686 | 0.0303 | -0.0106 | -0.0247 | 0.0198 | 0.0623 | -0.0297 | -0.0904 | -0.0155 | -0.0367 | -0.0232 | 0.0265 | -0.0165 | 0.0523 | -0.0603 | 0.0173 | 0.0035 | 0.0336 | -0.0166
CC1(C)CCC(CN2CCN(c3ccc(C(=O)NS(=O)(=O)c4ccc(NCC5CCOCC5)c([N+](=O)[O-])c4)c(Oc4cnc5[nH]ccc5c4)c3)CC2)=C(c2ccc(Cl)cc2)C1 [Venetoclax] + C[C@@H](Nc1cc(F)cc(F)c1)c1cc(C(=O)N(C)C)cc2c(=O)cc(N3CCOCC3)oc12 [AZD8186] (first compound max 1 µM, 7x7, partner max 3 µM) | -0.0248 | 0.0354 | -0.0088 | -0.0612 | -0.0277 | 0.0003 | 0.0048 | -0.0608 | 0.0107 | -0.0149 | -0.0505 | -0.0273 | -0.0171 | 0.0231 | -0.0202 | -0.0042 | -0.0244 | -0.0157 | -0.0299 | 0.0305
COc1cccc2c1C(=O)c1c(O)c3c(c(O)c1C2=O)C[C@@](O)(C(=O)CO)C[C@@H]3O[C@H]1C[C@H](N)[C@H](O)[C@H](C)O1 [Doxorubicin] + Cc1cc2ncnn2cc1Nc1ncc2c(n1)n(C1CCOCC1)c(=O)n2C [AZD7648] (first compound max 1 µM, 7x7, partner max 10 µM) | 0.0697 | 0.071 | 0.0964 | 0.0446 | 0.032 | 0.0229 | 0.0058 | 0.127 | -0.0234 | 0.05 | 0.0335 | 0.0902 | 0.0808 | 0.0972 | 0.143 | -0.0534 | 0.11 | 0.0398 | 0.0292 | 0.0232
COc1cccc(OCCCN)c1-c1cc(Nc2cnc(C#N)cn2)n[nH]1 [Prexasertib] + CCc1c2c(nc3ccc(O)cc13)-c1cc3c(c(=O)n1C2)COC(=O)[C@]3(O)CC [SN-38] (first compound max 1 µM, 7x7, partner max 0.3 µM) | 0.0134 | -0.0493 | 0.0088 | -0.0336 | 0.0483 | 0.0002 | -0.0713 | 0.0077 | -0.0466 | -0.0076 | 0.0603 | 0.0891 | 0.0263 | -0.0439 | 0.0035 | -0.0618 | -0.0364 | -0.0306 | -0.0339 | -0.0308
CC1(C)CCC(CN2CCN(c3ccc(C(=O)NS(=O)(=O)c4ccc(NCC5CCOCC5)c([N+](=O)[O-])c4)c(Oc4cnc5[nH]ccc5c4)c3)CC2)=C(c2ccc(Cl)cc2)C1 [Venetoclax] + C[C@@H]1COCCN1C2=NC(=NC(=C2)C3(CC3)[S@](=N)(=O)C)C4=C5C=CNC5=NC=C4 [AZD6738] (first compound max 1 µM, 7x7, partner max 10 µM) | 0.0077 | -0.0035 | -0.0281 | -0.0004 | -0.0101 | -0.019 | -0.037 | 0.0201 | -0.0671 | -0.0185 | -0.0365 | -0.048 | 0.0633 | -0.035 | 0.0062 | -0.117 | -0.0075 | -0.0603 | -0.0342 | -0.0313
CN(C)CCCOc1ccc(-c2ccc3ncc4c(c3c2)n(C2CCOCC2)c(=O)n4C)cn1 [AZD0156] + CCN(CCO)CCCOc1ccc2c(Nc3cc(CC(=O)Nc4cccc(F)c4)[nH]n3)ncnc2c1 [AZD2811] (first compound max 1 µM, 7x7, partner max 1 µM) | 0.0376 | 0.0105 | 0.0158 | -0.0111 | -0.037 | -0.031 | 0.0718 | -0.0416 | -0.0936 | 0.025 | -0.0064 | 0.0043 | 0.0458 | -0.0245 | -0.0135 | -0.04 | 0.0178 | -0.0135 | -0.0194 | -0.0198
